Values after ≈ are worked out from the molar mass of the structure shown.
Assay: Solubility of monomers and polymers in water, methanol, chloroform
Format: physicochemical
Source text: Monomer solubility (e.g., in water, methanol, or chloroform) varied with the selection of R-groups on the ammonium cation.

solubility (methanol, organic solvent or mixture, monomer, room temperature, read-out: Monomer solubility in MeOH (clear solution)) | SMILES | Monomer solubility in MeOH (similar concentration (˜500 mg mL-1))
~500 mg/mL (≈ 1310 mM) | C=Cc1ccc(CC(CC[N+](CCC)(CCC)CCC)S(=O)(=O)[O-])cc1 (centres unmarked) [tri-n-propyl derivative, 4-(Tripropylammonio)-1-(4-vinylphenyl)butane-2-sulfonate] | –
– | C=Cc1ccc(CC(CC[N+](CCCC)(CCCC)CCCC)S(=O)(=O)[O-])cc1 (centres unmarked) [tri-n-butyl derivative, 4-(Tributylammonio)-1-(4-vinylphenyl)butane-2-sulfonate] | required slightly elevated temperatures to attain solubility in MeOH

From US20230331918A1, “AMMONIUM AND SULFONIUM SULFONATE ZWITTERIONS AND POLYMERS DERIVED THEREFROM” (University of Massachusetts, priority 2022, published 2023)
